Earlier results on 1 molecule are cited in US6365170B1, “Use of a disinfectant for living fish” (USF Filtration & Separations Spa-Div. Perdomini, priority 1998, dated 2002).

The data set relates to salmon louse (Lepeophtheirus Salmonis). To be noted: hydrogen peroxide around 1.5 g/l for longer than 20 minutes.

Regarding `OO` [hydrogen peroxide], the success percentage is on record as around 100%.
